According to ChEMBL document CHEMBL5126654, “Cyclopiazonic Acid and Okaramine Analogues, Including Chlorinated Compounds, from Chrysosporium undulatum YT-1” (2022):
In brackets after ≈: the same amount, converted by molar mass. One block for each compound: values may come before it. Activity calls are given as the source filed them. The calls are words filed in the database; no cut-off is given here.

Legend:
Bombyx mori = test: Insecticidal activity against third instar larvae of Bombyx mori (silkworm) measured after 24 hrs; format: functional
Helicoverpa armigera = test: Insecticidal activity against third instar larvae of Helicoverpa armigera (cotton bollworms) measured after 24 hrs; format: functional
Bacillus subtilis = test: Antibacterial activity against Bacillus subtilis measured after 24 hrs by agar diffusion method; format: functional
PC12D = test: Neuroprotective activity in rat PC12 cells assessed as reduction in 6-OHDA-induced cell death at 40 uM pretreated for 30 mins followed by 6-OHDA stimulation and measured after 24 hrs by MTT assay; format: functional, cell-based; conditions: time 24.5 hrs

Structure (SMILES): CO[C@@H]1[C@]2(O)c3cc(O)ccc3N3C(C)(C)[C@H](CO)[C@]32N2C(=O)/C3=C/c4c([nH]c5ccccc45)C(C)(C)/C=C\N3C(=O)[C@]12O
LD50 (Bombyx mori): > 100 mg/kg
LD50 (Helicoverpa armigera): > 100 mg/kg

Structure (SMILES): CO[C@@H]1[C@]2(O)c3cc(O)ccc3N3C(C)(C)[C@H](C)[C@]32N2C(=O)/C3=C/c4c([nH]c5cc(Cl)ccc45)C(C)(C)/C=C\N3C(=O)[C@]12O
LD50 (Bombyx mori): 0.61 mg/kg
LD50 (Helicoverpa armigera): 0.06 mg/kg

Structure (SMILES): CO[C@@H]1[C@]2(O)c3cc(O)ccc3N3C(C)(C)[C@H](CO)[C@]32N2C(=O)/C3=C/c4c([nH]c5cc(Cl)ccc45)C(C)(C)/C=C\N3C(=O)[C@]12O
LD50 (Bombyx mori): > 100 mg/kg
LD50 (Helicoverpa armigera): > 100 mg/kg

MIC (Bacillus subtilis): 6.3 µg/mL (≈ 16.3 µM)
Structure (SMILES): C/C(O)=C1\C(=O)[C@@H]2[C@H]3c4c[nH]c5cc(Cl)cc(c45)[C@@H](O)[C@H]3C(C)(C)N2C1=O

Structure (SMILES): CO[C@@H]1[C@]2(O)c3cc(O)ccc3N3C(C)(C)[C@H](C)[C@]32N2C(=O)/C3=C/c4c([nH]c5ccccc45)C(C)(C)/C=C\N3C(=O)[C@]12O
LD50 (Bombyx mori): 0.07 mg/kg
LD50 (Helicoverpa armigera): < 0.01 mg/kg

Structure (SMILES): CO[C@@H]1[C@]2(O)c3cccc(O)c3N3C(C)(C)[C@H](C)[C@]32N2C(=O)/C3=C/c4c([nH]c5cc(Cl)ccc45)C(C)(C)/C=C\N3C(=O)[C@]12O
LD50 (Bombyx mori): 7.56 mg/kg
LD50 (Helicoverpa armigera): 4.13 mg/kg

Structure (SMILES): C=C(C)[C@H]1Cc2c(ccc3c2O[C@@H]2COc4cc(OC)c(OC)cc4[C@@H]2C3=O)O1 [ROTENONE]
LD50 (Bombyx mori): 37.8 mg/kg
LD50 (Helicoverpa armigera): 5.79 mg/kg

Structure (SMILES): CC(NCCc1ccccc1)=C1C(=O)[C@@H]2[C@H]3c4c[nH]c5cccc(c45)C[C@H]3C(C)(C)N2C1=O (mixture of isomers)
Activity (PC12D): Active
